The record followed here is patent US20230339939A1 (Bayer Aktiengesellschaft, priority 2020, published 2023).

Holding throughout (type): biochemical
The target of assay [1] is wild-type Epidermal Growth Factor Receptor (EGFR) (Homo sapiens (Human), UniProt P00533). Put plainly: WT-EGFR Kinase Assay (TR-FRET, 2 mM ATP). The source says: Inhibitory activity of compounds of the present invention against wild-type Epidermal Growth Factor Receptor (EGFR) was quantified employing the TR-FRET based EGFR assay as described in the following paragraphs.
wild-type Epidermal Growth Factor Receptor (EGFR), sequence (P00533 669-1210): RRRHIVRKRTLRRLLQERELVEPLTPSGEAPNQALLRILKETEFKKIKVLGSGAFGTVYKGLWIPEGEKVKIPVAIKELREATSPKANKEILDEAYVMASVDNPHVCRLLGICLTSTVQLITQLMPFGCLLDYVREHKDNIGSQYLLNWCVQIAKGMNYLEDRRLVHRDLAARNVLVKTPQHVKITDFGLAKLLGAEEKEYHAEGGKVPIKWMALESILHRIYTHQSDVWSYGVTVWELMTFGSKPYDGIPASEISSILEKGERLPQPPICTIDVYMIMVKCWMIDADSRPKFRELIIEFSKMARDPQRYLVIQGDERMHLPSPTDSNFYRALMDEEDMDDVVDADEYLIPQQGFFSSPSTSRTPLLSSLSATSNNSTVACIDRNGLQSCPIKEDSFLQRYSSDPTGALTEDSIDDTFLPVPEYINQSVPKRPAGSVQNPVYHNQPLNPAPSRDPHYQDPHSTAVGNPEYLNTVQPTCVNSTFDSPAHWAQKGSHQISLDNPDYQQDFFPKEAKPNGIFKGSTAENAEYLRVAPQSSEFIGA
Recombinant fusion protein of N-terminal Glutathion-S-Transferase (GST) and a fragment of human EGFR (amino acids R669 to A1210), expressed in Sf9 insect cells and purified via affinity chromatography using Glutathion Sepharose as described above, was used as kinase. As substrate for the kinase reaction the biotinylated peptide biotin-Ahx-[…] (C-terminus in amide form) was used which can be purchased e.g. form the company Biosynthan GmbH (Berlin-Buch, Germany).
For the assay 50 nl of a 100 fold concentrated solution of the test compound in DMSO was pipetted into either a black low volume 384 well microtiter plate or a black 1536 well microtiter plate (both Greiner Bio-One, Frickenhausen, Germany), 2 μL of a solution of EGFR in aqueous assay buffer [50 mM Hepes pH 7.0, 10 mM MgCl2, 1 mM dithiothreitol, 0.5 mM EGTA, 0.3 mM activated sodium ortho-vanadate, 0.005% (w/v) bovine serum albumin, 0.005% (v/v) Tween-20] were added and the mixture was incubated for 15 min at 22° C. to allow pre-binding of the test compounds to the enzyme before the start of the kinase reaction. […] The concentration of EGFR was adjusted depending of the activity of the enzyme lot and was chosen appropriate to have the assay in the linear range, typical concentration was 7.6 pg/μL. The reaction was stopped by the addition of 3 μL of a solution of HTRF detection reagents (83.3 nM streptavidine-XL665 [Cisbio Bioassays, Codolet, France] and 1.67 nM PT66-Tb-Cryptate, a terbium-cryptate labelled anti-phospho-tyrosine antibody from Cisbio Bioassays [instead of the PT66-Tb-cryptate PT66-Eu-Chelate from Perkin Elmer can also be used]) in an aqueous EDTA-solution (133.3 mM EDTA, 0.2% (w/v) bovine serum albumin in 50 mM HEPES pH 7.5).
The resulting mixture was incubated 1 h at 22° C. to allow the binding of the biotinylated phosphorylated peptide to the streptavidine-XL665 and the PT66-Tb-Cryptate. Subsequently the amount of phosphorylated substrate was evaluated by measurement of the resonance energy transfer from the PT66-Tb-Cryptate to the streptavidine-XL665. Therefore, the fluorescence emissions at 620 nm and 665 nm after excitation at 337 nm were measured in a HTRF reader, e.g. a Pherastar (BMG Labtechnologies, Offenburg, Germany) or a Viewlux (Perkin-Elmer). The ratio of the emissions at 665 nm and at 622 nm was taken as the measure for the amount of phosphorylated substrate.

The target of assay [2] is T1, CSNK1A1 (Homo sapiens (Human), UniProt P48729). Description: CSNK1A1 Assay 2 (ADP-Glo, 1 μM ATP, substrate biotin-Ahx-KRRRAL-pS-VASLPGL). The note with it: median, read-out: CSNK1A1 Assay 2 IC50 [mol/l] (median). As to the method:
CSNK1A1-inhibitory activity of compounds of the present invention in presence of 1 μM adenosine-tri-phosphate (ATP) was quantified employing the CSNK1A1 assay as described in the following paragraphs. In essence, the enzyme activity is measured by quantification of the adenosine-di-phosphate (ADP), which is generated as a co-product of the enzyme reaction, via the “ADP-Glo™ Kinase Assay” kit from the company Promega. This detection system works as follows: In a first step the ATP not consumed in the kinase reaction is quantitatively converted to cAMP employing an adenylate cyclase (“ADP-Glo-reagent”), then the adenylate cyclase is stopped and the ADP generated in the kinase reaction converted to ATP which generates in a luciferase-based reaction a glow-luminescence signal (“Kinase Detection Reagent”).
(§1) Recombinant fusion protein of N-terminal Glutathion-S-Transferase (GST) and full-length human CSNK1A1, expressed by baculovirus infected insect cells and purified via Glutathion affinity chromatography, was purchased from Life Technologies (product no. PV4174) and used as enzyme. As substrate for the kinase reaction the biotinylated peptide biotin-Ahx-KRRRAL-pS-VASLPGL (C-terminus in amide form) was used which can be purchased e.g. from the company Biosyntan (Berlin-Buch, Germany).
For the assay 50 nl of a 100 fold concentrated solution of the test compound in DMSO was pipetted into a white 1536-well microtiter plate (Greiner Bio-One, Frickenhausen, Germany), 2 μL of a solution of CSNK1A1 in aqueous assay buffer [50 mM HEPES pH 7.5, 10% (v/v) glycerol, 10 mM MgCl2, 50 mM NaCl, 1 mM dithiothreitol, 0.01% (w/v) bovine serum albumin, 0.01% (v/v) Triton X-100] were added and the mixture was incubated for 15 min at 22° C. to allow pre-binding of the test compounds to the enzyme before the start of the kinase reaction. […] The concentration of CSNK1A1 was adjusted depending of the activity of the enzyme lot and was chosen appropriate to have the assay in the linear range, a typical concentrations are about 0.0375 ng/μL. The reaction was stopped by the addition of 2.5 μL of “ADP-Glo-reagent” (1:1.5 fold diluted with water) and the resulting mixture was incubated at 22° C. for 1 h to convert the ATP not consumed in the kinase reaction completely […]. Subsequently 2.5 μL of the “kinase detection reagent” (1.2 fold more concentrated than recommended by the producer) were added, the resulting mixture was incubated at 22° C. for 1 h and then the luminescence measured with a suitable measurement instrument (e.g. Viewlux™ from Perkin-Elmer). The amount of emitted light was taken as a measure for the amount of ADP generated and thereby for the activity of the CSNK1A1.

The target in assay [3] is T1, CSNK1A1. Description: CSNK1A1 High ATP Assay (ADP-Glo, 1 mM ATP). Conditions: median, read-out: CSNK1A1 high ATP assay IC50 [mol/l] (median). As for the experimental part: CSNK1A1-inhibitory activity of compounds of the present invention in presence of 1 mM adenosine-tri-phosphate (ATP) was quantified employing the CSNK1A1-high-ATP-assay as described in the following paragraphs. In essence, the enzyme activity is measured by quantification of the adenosine-di-phosphate (ADP), which is generated as a co-product of the enzyme reaction, via the “ADP-Glo™ Kinase Assay” kit from the company Promega. This detection system works as follows: In a first step the ATP not consumed in the kinase reaction is quantitatively converted to cAMP employing an adenylate cyclase (“ADP-Glo-reagent”), then the adenylate cyclase is stopped and the ADP generated in the kinase reaction converted to ATP which generates in a luciferase-based reaction a glow-luminescence signal (“Kinase Detection Reagent”).
as §1
For the assay 50 nl of a 100 fold concentrated solution of the test compound in DMSO was pipetted into a white low volume 384-well microtiter plate (Greiner Bio-One, Frickenhausen, Germany), 2 μL of a solution of CSNK1A1 in aqueous assay buffer [50 mM HEPES pH 7.5, 10% (v/v) glycerol, 10 mM MgCl2, 50 mM NaCl, 1 mM dithiothreitol, 0.01% (w/v) bovine serum albumin, 0.01% (v/v) Triton X-100] were added and the mixture was incubated for 15 min at 22° C. to allow pre-binding of the test compounds to the enzyme before the start of the kinase reaction. […] The concentration of CSNK1A1 was adjusted depending of the activity of the enzyme lot and was chosen appropriate to have the assay in the linear range, a typical concentration is about 0.4 ng/μL. The reaction was stopped by the addition of 2.5 μL of “ADP-Glo-reagent” (1:1.5 fold diluted with water) and the resulting mixture was incubated at 22° C. for 1 h to convert the ATP not consumed in the kinase reaction completely […]. Subsequently 2.5 μL of the “kinase detection reagent” (1.2 fold more concentrated than recommended by the producer) were added, the resulting mixture was incubated at 22° C. for 1 h and then the luminescence measured with a suitable measurement instrument (e.g. Viewlux™ from Perkin-Elmer). The amount of emitted light was taken as a measure for the amount of ADP generated and thereby for the activity of the CSNK1A1.

In another assay the target is CSNK1D (Homo sapiens (Human), UniProt P48730). Description: CSNK1D Assay (ADP-Glo, 1 μM ATP). Conditions: median, read-out: CSNK1D IC50 [mol/l] (median). As for the experimental part:
CSNK1D-inhibitory activity of compounds of the present invention in presence of 1 μM adenosine-tri-phosphate (ATP) was quantified employing the CSNK1 D assay as described in the following paragraphs. In essence, the enzyme activity is measured by quantification of the adenosine-di-phosphate (ADP), which is generated as a co-product of the enzyme reaction, via the “ADP-Glo™ Kinase Assay” kit from the company Promega. This detection system works as follows: In a first step the ATP not consumed in the kinase reaction is quantitatively converted to cAMP employing an adenylate cyclase (“ADP-Glo-reagent”), then the adenylate cyclase is stopped and the ADP generated in the kinase reaction converted to ATP which generates in a luciferase-based reaction a glow-luminescence signal (“Kinase Detection Reagent”).
Recombinant fusion protein of N-terminal Glutathion-S-Transferase (GST) and full-length human CSNK1D, expressed by baculovirus infected insect cells and purified via Glutathion affinity chromatography, was purchased from Life Technologies (product no. PV3665) and used as enzyme. As substrate for the kinase reaction the biotinylated peptide Btn-Ahx-[…] (C-terminus in amide form) was used which can be purchased e.g. from the company Biosyntan (Berlin-Buch, Germany).
For the assay 50 nl of a 100 fold concentrated solution of the test compound in DMSO was pipetted into a white 1536-well microtiter plate (Greiner Bio-One, Frickenhausen, Germany), 2 μL of a solution of CSNK1D in aqueous assay buffer [50 mM HEPES pH 7.5, 10% (v/v) glycerol, 10 mM MgCl2, 50 mM NaCl, 1 mM dithiothreitol, 0.01% (w/v) bovine serum albumin, 0.01% (v/v) Triton X-100] were added and the mixture was incubated for 15 min at 22° C. to allow pre-binding of the test compounds to the enzyme before the start of the kinase reaction. […] The concentration of CSNK1D was adjusted depending of the activity of the enzyme lot and was chosen appropriate to have the assay in the linear range, a typical concentration is about 0.5 ng/μL. The reaction was stopped by the addition of 2.5 μL of “ADP-Glo-reagent” (1:1.5 fold diluted with water) and the resulting mixture was incubated at 22° C. for 1 h to convert the ATP not consumed in the kinase reaction completely […]. Subsequently 2.5 μL of the “kinase detection reagent” (1.2 fold more concentrated than recommended by the producer) were added, the resulting mixture was incubated at 22° C. for 1 h and then the luminescence measured with a suitable measurement instrument (e.g. Viewlux™ from Perkin-Elmer). The amount of emitted light was taken as a measure for the amount of ADP generated and thereby for the activity of the CSNK1D.

[4] abbreviates: read-out: EGFR Wildtype 2 mM ATP IC50 [mol/l] (median).

Structures are written as SMILES. Where two headings read alike, the source gives them in different places. Where only a bound is given, the exact number is not on record here.

T1 sequence (P48729 whole entry): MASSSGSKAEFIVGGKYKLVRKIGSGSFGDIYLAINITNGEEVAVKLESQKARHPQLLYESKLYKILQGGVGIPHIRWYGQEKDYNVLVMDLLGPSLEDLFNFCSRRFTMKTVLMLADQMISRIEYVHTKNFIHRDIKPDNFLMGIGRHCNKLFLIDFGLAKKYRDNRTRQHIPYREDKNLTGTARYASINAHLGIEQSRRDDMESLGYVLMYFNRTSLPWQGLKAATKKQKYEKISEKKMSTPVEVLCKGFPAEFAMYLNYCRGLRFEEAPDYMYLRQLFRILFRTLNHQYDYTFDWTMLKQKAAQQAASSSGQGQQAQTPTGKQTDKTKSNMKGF
CSNK1D, sequence (P48730 whole entry): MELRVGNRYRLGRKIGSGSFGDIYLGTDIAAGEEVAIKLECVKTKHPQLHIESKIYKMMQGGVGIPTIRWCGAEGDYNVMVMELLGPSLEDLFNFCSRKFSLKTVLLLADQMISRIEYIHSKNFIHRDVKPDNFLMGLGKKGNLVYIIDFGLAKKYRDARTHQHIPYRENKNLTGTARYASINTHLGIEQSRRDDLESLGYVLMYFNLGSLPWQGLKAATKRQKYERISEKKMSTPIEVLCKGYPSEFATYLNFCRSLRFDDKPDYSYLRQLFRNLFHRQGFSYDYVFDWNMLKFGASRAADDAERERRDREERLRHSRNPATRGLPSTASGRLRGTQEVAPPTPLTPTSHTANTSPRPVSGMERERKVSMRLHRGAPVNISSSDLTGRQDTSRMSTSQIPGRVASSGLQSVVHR

As to `CC(C(=O)Nc1cc(-c2[nH]c3cccnc3c2-c2ccccc2)ccn1)c1ccc(F)cc1` (single isomer, unassigned; (+)) [Example 13, (+)-2-(4-fluorophenyl)-N-[4-(3-phenyl-1H-pyrrolo[3,2-b]pyridin-2-yl)pyridin-2-yl]propanamide], the figures for the IC50 (in assay [1] (setting [4]); on CSNK1A1 [2]; on CSNK1A1 [3]) were more than 20 µM, 0.00166 µM and 0.0916 µM, respectively.
Take `CC(C(=O)Nc1cc(-c2[nH]c3ccc(F)nc3c2-c2ccc(F)cn2)ccn1)c1ccc(F)cc1` (single isomer, unassigned; (+)) [Example 48, (+)-N-{4-[5-fluoro-3-(5-fluoropyridin-2-yl)-1H-pyrrolo[3,2-b]pyridin-2-yl]pyridin-2-yl}-2-(4-fluorophenyl)propanamide]: the figures for the IC50 at CSNK1A1 [2], on CSNK1D and at CSNK1A1 [3] were 0.00169 µM, 0.00396 µM and 0.0361 µM, respectively.
Regarding `CC(C(=O)Nc1cc(-c2[nH]c3cccnc3c2-c2ccccc2)ccn1)c1ccc(F)cc1` (single isomer, unassigned; (-)) [Example 12, (−)-2-(4-fluorophenyl)-N-[4-(3-phenyl-1H-pyrrolo[3,2-b]pyridin-2-yl)pyridin-2-yl]propanamide], the IC50 is more than 20 µM in assay [1] (median), 0.037 µM at CSNK1A1 [2] and 2.51 µM at CSNK1A1 [3].
For the compound `CC(C(=O)Nc1cc(-c2[nH]c3ccc(F)nc3c2-c2ccc(F)cn2)ccn1)c1ccc(F)cc1` (single isomer, unassigned; (-)) [Example 49, (−)-N-{4-[5-fluoro-3-(5-fluoropyridin-2-yl)-1H-pyrrolo[3,2-b]pyridin-2-yl]pyridin-2-yl}-2-(4-fluorophenyl)propanamide], the IC50 on CSNK1A1 [2] is 0.0345 µM; at CSNK1D, 0.0331 µM; at CSNK1A1 [3], 2.58 µM.
For the compound `O=C(Cc1ccc(F)cc1)Nc1cc(-c2[nH]c3nccnc3c2-c2ccccc2)ccn1` [Example 18, 2-(4-fluorophenyl)-N-[4-(7-phenyl-5H-pyrrolo[2,3-b]pyrazin-6-yl)pyridin-2-yl]acetamide], the results for the IC50 (in assay [1] (setting [4]); on CSNK1A1 [2]; on CSNK1A1 [3]) were more than 20 µM, 0.00333 µM and 0.26 µM, respectively.
As for `O=C(Cc1ccc(F)cc1)Nc1cc(-c2[nH]c3nccnc3c2-c2ccccn2)ccn1` [Example 19, 2-(4-fluorophenyl)-N-{4-[7-(pyridin-2-yl)-5H-pyrrolo[2,3-b]pyrazin-6-yl]pyridin-2-yl}acetamide], the IC50 in assay [1] (setting [4]) was more than 20 µM; on CSNK1A1 [2] it was 0.00102 µM; on CSNK1A1 [3], 0.0331 µM.
For the compound `O=C(Cc1ccc(F)cc1)Nc1cc(-c2[nH]c3ccnnc3c2-c2ccccc2)ccn1` [Example 20, 2-(4-fluorophenyl)-N-[4-(7-phenyl-5H-pyrrolo[3,2-c]pyridazin-6-yl)pyridin-2-yl]acetamide], the IC50 in assay [1] (setting [4]) was more than 20 µM; at CSNK1A1 [2] it was 0.0013 µM; at CSNK1A1 [3], 0.0779 µM.
